# Laboratory results from patent publication US20060223876A1, “Indoloquinone Tumor Radiation Sensitization” (priority 2005, published 2006).
# Where two headings read alike, the source gives them in different places.
# Experiments:
# [1] = system: U-87 human glioblastoma cells
# Procedure: U-87 human glioblastoma cells (American Type Culture Collection) were maintained in alpha MEM medium (Sigma) with 10% fetal bovine serum (Atlanta Biologicals). A U-87 cell suspension was injected subcutaneously into the right hind limb (5×10^5 cells in 100 μl PBS) of athymic NCR NUM mice (Taconic Farms) and allowed to grow to a hypoxic volume of ˜550 mm^3 before treatment. Tumors were treated with EO9 and a fractionated radiation therapy schedule to test the hypothesis that EO9 would sensitize tumor cells to radiation therapy. EO9 or vehicle was administered 30 minutes after each radiation therapy fraction on day 1, 2, and 3. The study used 4 treatment groups: vehicle (DMSO), radiation therapy alone (3 days×7.5 Gy), EO9 (3 days×2 mg/kg), and EO9 +radiation therapy (3 days×7.5 Gy×2 mg/kg). EO9 was administered locally by intra-tumoral injection to achieve optimal delivery.
# Irradiations were performed on anesthetized mice using an X-ray machine (Pantak) operating at 250 kV, 10 mA, with a 2-mm aluminum filtration. The effective photon energy was 90 keV. Mice were anesthetized with a combination of Ketamine and Acepromazine at a concentration of 75 mg/kg and 0.30 mg/kg respectively. Each mouse was confined in a lead casing with its tumor-bearing leg extended through an opening on the side to allow the tumor to be irradiated locally.
# Mixed-effects regression was used to model the base-10 logarithm of tumor volume as a function of time and treatment (tumor growth analyses). The log-transformed outcome was used because tumors of this size grow approximately exponentially, and therefore the logarithm of the tumor volume is approximately linear over time. This approach appropriately handles unbalanced data, such as a different number of measurements for different animals, and takes into account the correlation of each animal's measurements over time. These analyses were carried out with SAS 8.2 (SAS Institute Inc., Cary, N.C., 1999-2001).
# [2] = system: U-87 human glioblastoma cells; experiment: Long term study: EO9 and radiation therapy two non-consecutive days a week for 3 weeks, U-87 tumor xenograft growth; assay type: in vivo, athymic NCR NUM mice; conditions: for % Δ: average rate of increase of tumor volume / T2x: average doubling time of tumor volume: 2 days a week for 3 weeks
# Procedure: The effective photon energy was 90 keV.
# A protocol was investigated where EO9 and radiation therapy were administered over a longer period of time. In this study, EO9 or radiation therapy was delivered alone or in combination on two non-consecutive days a week for 3 weeks. Six groups received vehicle alone (DMSO), vehicle 30 minutes before radiation therapy (2 days×7.5 Gy), vehicle 30 minutes after radiation therapy (2 days×7.5 Gy), E09 only (2 days×3 mg/kg), EO9 […], and EO9 30 minutes after radiation therapy.
# [3] = EO9 + radiation therapy (3 days x 7.5 Gy x 2 mg/kg), EO9 30 minutes after each fraction
# [4] = EO9 3 mg/kg 30 minutes after radiation therapy (7.5 Gy)
# [5] = EO9 3 mg/kg before radiation therapy (7.5 Gy)
# [6] = EO9 only, 3 mg/kg intra-tumoral
smiles,measurement,setting,value
"Cn1c(/C=C/CO)c(CO)c2c1C(=O)C=C(N1CC1)C2=O [EO9, 3-hydroxymethyl-5-aziridinyl-1-methyl-2-(1 H-indole-4,7-dione)-prop-β-en-α-ol]",nature of the combination effect of EO9 and radiation therapy,[1]; EO9 + radiation therapy,additive
same,Estimated Time (Days) for tumors to reach 2000 mm^3,[1]; [3],20.8 days
same,T2x: average doubling time of tumor volume,[1]; [3],11.7 days
same,% Δ (95% CI): average rate of increase of tumor volume,"[1]; EO9 + radiation therapy (3 days x 7.5 Gy x 2 mg/kg), EO9 intra-tumoral 30 minutes after each fraction","6 (4, 8) % daily increase"
same,increase of tumor doubling time vs. control,"[1]; EO9 alone, 3 days x 2 mg/kg",1.4 days
same,Estimated Time (Days) for tumors to reach 2000 mm^3,"[1]; EO9 alone, 3 days x 2 mg/kg intra-tumoral",8.6 days
same,% Δ (95% CI): average rate of increase of tumor volume,"[1]; EO9 alone, 3 days x 2 mg/kg intra-tumoral, tumors ~550 mm^3","16 (14, 19) % daily increase"
same,rate of tumor growth compared with the other groups,[1]; EO9 and radiation therapy,slowest rate of tumor growth
same,increase of mean tumor doubling time vs. control,[1]; combination of EO9 and radiation therapy,8.5 days
same,% Δ: average rate of increase of tumor volume,[2]; [4],8 % daily increase
same,T2x: average doubling time of tumor volume,[2]; [4],9.1 days
same,% Δ: average rate of increase of tumor volume,[2]; [5],4 % daily increase
same,T2x: average doubling time of tumor volume,[2]; [5],17.3 days
same,effectiveness of dosing schedule,[2]; EO9 administered before radiation therapy,most effective dosing schedule
same,% Δ: average rate of increase of tumor volume,[2]; [6],12 % daily increase
same,T2x: average doubling time of tumor volume,[2]; [6],6.1 days
same,rate of tumor volume growth compared with the other groups,[2]; groups receiving EO9 before or after radiation therapy combined into a single group (FIG. 8),slowest rate of tumor volume growth
